Where a name gives a salt, the structure may show the parent alone. Read-outs that look alike come from different tables or passages of the source. Each block holds one compound with its values, some of them ahead of it.
Tests used:
Assay type in all cases: biochemical
[1] = target: maltase (from porcine intestinal mucosa); test: inhibitory activity against maltase prepared from porcine intestinal mucosa (substrate maltose)
Method: (§1) The inhibitory activities of the compounds of this invention against α-glucosidase (yeast, type I, produced by Sigma Chemical Co. the United States of America) as well as maltase and saccharase prepared from porcine intestinal mucosa (prepared in accordance with the procedure as described by B. Borgstro m and A. Dahlgvist in Acta Chem. Scand.; 12, 1997-2006, (1958)), when maltose and sucrose are used as a substrate, are determined by adding to 0.25 ml of a solution of an enzyme prepared by diluting suitably with 0.02M phosphate buffer (pH 6.8) 0.5 ml of a solution of an inhibitory substance to be tested in the same buffer and 0.25 ml of 0.05M maltose or 0.05M sucrose as the substrate in the same buffer, allowing the mixture to react at 37° C. for 10 minutes, then adding 3 ml of Glucose B-Test Reagent (a glucose oxidase reagent for measurement of glucose, produced by Wako Pure Chemical Co., Japan), further warming the mixture at 37° C. for 20 minutes, and measuring the absorbance of the reaction solution at 505 nm. […]

[2] = target: T1, saccharase (from porcine intestinal mucosa) (Sus scrofa, UniProt P56729); test: inhibitory activity against saccharase prepared from porcine intestinal mucosa (substrate sucrose)
T1 construct: maltase and saccharase prepared from porcine intestinal mucosa; from tissue; host or cells: porcine intestinal mucosa
Method: as §1

α-glucoside hydrolase = test: α-glucosidase inhibitory activity (general statement); settings: statement in words
[3] = read-out: The concentrations of 50% inhibition against maltase (substrate:maltose) IC50, Table 1, porcine intestinal mucosa maltase, substrate maltose, pH 6.8, 37° C.
[4] = Table 2, porcine intestinal mucosa saccharase, substrate sucrose, pH 6.8, 37° C.
[5] = IC50 (saccharase), given in the examples
[6] = given in the examples, read-out: IC50 (maltase)
[7] = given in the examples, read-out: IC50 (saccharase)

T1 sequence (P56729 with tags, fused parts or gaps limits assumed): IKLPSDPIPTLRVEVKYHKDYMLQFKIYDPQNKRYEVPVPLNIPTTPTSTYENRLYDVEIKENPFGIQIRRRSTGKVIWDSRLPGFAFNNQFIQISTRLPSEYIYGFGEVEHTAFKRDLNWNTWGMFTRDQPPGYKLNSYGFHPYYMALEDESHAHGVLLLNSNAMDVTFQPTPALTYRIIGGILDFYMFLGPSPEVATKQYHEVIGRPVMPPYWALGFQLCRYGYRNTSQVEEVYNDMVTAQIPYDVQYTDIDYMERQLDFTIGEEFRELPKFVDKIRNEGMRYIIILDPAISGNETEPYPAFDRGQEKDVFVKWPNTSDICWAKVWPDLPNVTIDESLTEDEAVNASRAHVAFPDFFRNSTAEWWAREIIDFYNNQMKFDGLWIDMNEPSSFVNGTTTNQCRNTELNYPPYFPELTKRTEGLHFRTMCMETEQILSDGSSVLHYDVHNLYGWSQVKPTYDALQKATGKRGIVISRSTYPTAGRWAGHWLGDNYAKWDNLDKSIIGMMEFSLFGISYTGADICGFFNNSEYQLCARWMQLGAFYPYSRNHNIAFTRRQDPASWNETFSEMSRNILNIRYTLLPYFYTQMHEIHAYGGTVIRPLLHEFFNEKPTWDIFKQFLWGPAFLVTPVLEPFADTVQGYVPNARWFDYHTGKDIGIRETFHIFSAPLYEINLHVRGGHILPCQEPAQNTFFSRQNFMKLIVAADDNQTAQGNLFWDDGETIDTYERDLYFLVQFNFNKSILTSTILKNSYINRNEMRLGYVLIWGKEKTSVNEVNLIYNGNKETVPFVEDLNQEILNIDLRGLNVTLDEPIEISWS
T1 sequence (P56729 with tags, fused parts or gaps partner limits assumed): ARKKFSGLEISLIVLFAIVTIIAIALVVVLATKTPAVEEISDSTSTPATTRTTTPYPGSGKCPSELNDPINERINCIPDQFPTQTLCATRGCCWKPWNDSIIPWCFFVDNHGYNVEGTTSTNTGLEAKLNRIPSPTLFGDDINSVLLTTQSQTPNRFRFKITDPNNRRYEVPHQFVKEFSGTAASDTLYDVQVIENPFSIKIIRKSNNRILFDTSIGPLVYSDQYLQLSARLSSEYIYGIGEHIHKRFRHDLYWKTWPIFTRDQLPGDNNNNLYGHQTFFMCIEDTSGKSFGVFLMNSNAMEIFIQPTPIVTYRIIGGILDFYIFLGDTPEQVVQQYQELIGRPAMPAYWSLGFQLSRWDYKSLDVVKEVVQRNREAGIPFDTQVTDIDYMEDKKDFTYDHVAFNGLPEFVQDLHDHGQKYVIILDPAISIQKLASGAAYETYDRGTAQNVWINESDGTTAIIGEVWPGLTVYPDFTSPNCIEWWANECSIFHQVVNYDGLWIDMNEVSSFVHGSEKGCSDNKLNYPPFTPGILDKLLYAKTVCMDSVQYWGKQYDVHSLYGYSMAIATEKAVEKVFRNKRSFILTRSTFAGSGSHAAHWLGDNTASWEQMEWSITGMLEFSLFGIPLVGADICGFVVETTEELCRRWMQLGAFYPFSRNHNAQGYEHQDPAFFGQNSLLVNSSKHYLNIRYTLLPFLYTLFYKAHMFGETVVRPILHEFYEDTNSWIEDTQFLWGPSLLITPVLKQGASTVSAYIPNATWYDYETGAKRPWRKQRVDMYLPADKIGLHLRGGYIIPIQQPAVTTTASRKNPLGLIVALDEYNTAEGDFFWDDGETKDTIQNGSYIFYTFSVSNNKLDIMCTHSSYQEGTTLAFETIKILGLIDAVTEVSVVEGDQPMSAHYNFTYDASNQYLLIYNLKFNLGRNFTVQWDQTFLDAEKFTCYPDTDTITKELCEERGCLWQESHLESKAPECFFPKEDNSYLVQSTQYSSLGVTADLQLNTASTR

SMILES: CC(C)(C)c1cc(CN[C@H]2C[C@H](CO)[C@@H](O)[C@H](O)[C@H]2O)cc(C(C)(C)C)c1O
- IC50 [1, 3]: 36 µM

SMILES: OC[C@@]1(O)C[C@H](NCC2CCCCC2)[C@H](O)[C@@H](O)[C@@H]1O
- IC50 [2, 4]: 0.0093 µM

SMILES: CC(C)=CCC/C(C)=C/CN[C@H]1C[C@](O)(CO)[C@@H](O)[C@H](O)[C@H]1O
- IC50 [2, 4]: 0.011 µM

SMILES: OCC(O)C(O)C(O)C(O)CN[C@H]1C[C@](O)(CO)[C@@H](O)[C@H](O)[C@H]1O (some centres unmarked)
- IC50 [2, 4]: 0.036 µM

SMILES: OC[C@@]1(O)C[C@H](NCc2ccc(Br)cc2)[C@H](O)[C@@H](O)[C@@H]1O
- IC50 [2, 4]: 0.015 µM

SMILES: OCC1(O)CC(NCc2ccco2)C(O)C(O)C1O (centres unmarked)
- IC50 [2, 4]: 0.015 µM

SMILES: OC[C@@]1(O)C[C@H](NC2CCCC2O)[C@H](O)[C@@H](O)[C@@H]1O (single isomer, unassigned) [Example 38 Isomer showing [α]D^24 +40.4°, N-(2-hydroxycyclopentyl)valiolamine]
- IC50 [2, 5]: 0.13 µM

SMILES: OC[C@@]1(O)C[C@H](NC2CCCC2O)[C@H](O)[C@@H](O)[C@@H]1O (single isomer, unassigned) [Example 38 Isomer showing [α]D^24-16.2°, N-(2-hydroxycyclopentyl)valiolamine]
- IC50 [2, 5]: 0.024 µM
- IC50 [1, 6]: 0.058 µM

SMILES: CC(C)=CCC/C(C)=C/CN[C@H]1C[C@H](CO)[C@@H](O)[C@H](O)[C@H]1O [Example 12, N-geranylvalidamine sulfate]
- IC50 [2, 7]: 0.79 µM

SMILES: OCC(N[C@H]1C[C@H](CO)[C@@H](O)[C@H](O)[C@H]1O)[C@@H](O)[C@H](O)[C@@H](O)CO (stereo partly drawn) [Example 16, N-(L-xylo-2,3,4,5-tetrahydroxy-1-hydroxymethylpentyl)validamine]
- IC50 [2, 7]: 0.079 µM

SMILES: OCC(N[C@H]1C[C@H](CO)[C@@H](O)[C@H](O)[C@H]1O)[C@@H](O)[C@H](O)[C@H](O)CO (stereo partly drawn) [Example 19, N-(D-arabino-2,3,4,5-tetrahydroxy-1-hydroxymethylpentyl)validamine]
- IC50 [1, 6]: 0.59 µM

SMILES: OC[C@H]1C[C@H](NC2CCCCC2O)[C@H](O)[C@@H](O)[C@@H]1O (some centres unmarked) [Example 20, N-(2-hydroxycyclohexyl)validamine]
- IC50 [2, 5]: 0.096 µM

SMILES: OC[C@H]1C[C@H](NC2CCCC2O)[C@H](O)[C@@H](O)[C@@H]1O (some centres unmarked) [Example 21, N-(2-hydroxycyclopentyl)validamine]
- IC50 [2, 5]: 0.13 µM

SMILES: OC[C@@]1(O)C[C@H](NC2CCCCC2)[C@H](O)[C@@H](O)[C@@H]1O [Example 37, N-cyclohexylvaliolamine]
- IC50 [2, 7]: 0.015 µM
- IC50 [1, 6]: 0.41 µM

SMILES: OC[C@@]1(O)C[C@H](NC2CCCC2)[C@H](O)[C@@H](O)[C@@H]1O [Example 39, N-cyclopentylvaliolamine]
- IC50 [2, 5]: 0.025 µM

SMILES: CC(C)(C)c1cc(CN[C@H]2C[C@](O)(CO)[C@@H](O)[C@H](O)[C@H]2O)cc(C(C)(C)C)c1O [Example 40, N-(3,5,-di-tert-butyl-4-hydroxybenzyl)valiolamine]
- IC50 [2, 7]: 0.0068 µM
- IC50 [1, 6]: 0.043 µM

SMILES: COc1ccccc1C(O)CN[C@H]1C[C@](O)(CO)[C@@H](O)[C@H](O)[C@H]1O (stereo partly drawn) [Example 41, N-(β-hydroxy-2-methoxyphenetyl)valiolamine]
- IC50 [2, 7]: 0.0099 µM
- IC50 [1, 6]: 0.063 µM

SMILES: OCC(CO)N[C@H]1C[C@](O)(CO)[C@@H](O)[C@H](O)[C@H]1O [drawing 7]
- IC50 [1, 3]: 0.015 µM

SMILES: OC[C@@]1(O)C[C@H](NCC(O)COc2ccccc2)[C@H](O)[C@@H](O)[C@@H]1O (some centres unmarked) [drawing 12]
- IC50 [1, 3]: 0.033 µM

SMILES: OC[C@@]1(O)C[C@H](NCCc2ccccc2)[C@H](O)[C@@H](O)[C@@H]1O [drawing 13]
- IC50 [1, 3]: 0.1 µM

SMILES: OCC(CO)N[C@H]1C[C@](O)(CO)[C@@H](O)[C@H](O)[C@H]1O [drawing 17]
- IC50 [2]: 0.0046 µM

SMILES: OC[C@@]1(O)C[C@H](NCC(O)COc2ccccc2)[C@H](O)[C@@H](O)[C@@H]1O (some centres unmarked) [drawing 20]
- IC50 [2, 4]: 0.0086 µM

SMILES: OC[C@@]1(O)C[C@H](NCCc2ccccc2)[C@H](O)[C@@H](O)[C@@H]1O [drawing 26]
- IC50 [2, 4]: 0.0023 µM

SMILES: N[C@H]1C[C@H](CO)[C@@H](O)[C@H](O)[C@H]1O [validamine]
- α-glucosidase inhibitory activity (α-glucoside hydrolase): possesses a highly valuable action of suppressing the function of α-glucoside hydrolase

SMILES: N[C@H]1C[C@](O)(CO)[C@@H](O)[C@H](O)[C@H]1O [valiolamine, 1L(1S)-(1(OH),2,4,5/1,3)-5-amino-1-hydroxymethyl-1,2,3,4-cyclohexanetetrol]
- α-glucosidase inhibitory activity (α-glucoside hydrolase): α-glucosidase inhibitory activity

More lines, now with the values ahead:

- IC50 [1, 3]: 0.05 µM
SMILES: OC[C@@]1(O)C[C@H](NCC(O)c2ccccc2)[C@H](O)[C@@H](O)[C@@H]1O (single isomer, unassigned) [drawing 8]

- IC50 [1, 3]: 0.0058 µM
SMILES: OC[C@@]1(O)C[C@H](NCC(O)c2ccccc2)[C@H](O)[C@@H](O)[C@@H]1O (single isomer, unassigned) [drawing 9]

- IC50 [2, 4]: 0.019 µM
SMILES: OC[C@@]1(O)C[C@H](NCC(O)c2ccccc2)[C@H](O)[C@@H](O)[C@@H]1O (single isomer, unassigned) [drawing 18]

- IC50 [2, 4]: 0.0029 µM
SMILES: OC[C@@]1(O)C[C@H](NCC(O)c2ccccc2)[C@H](O)[C@@H](O)[C@@H]1O (single isomer, unassigned) [drawing 19]

- IC50 [1, 6]: 3.4 µM
SMILES: OC[C@H]1C[C@H](NCC(O)COc2ccccc2)[C@H](O)[C@@H](O)[C@@H]1O (some centres unmarked) [Example 18, N-(2-hydroxy-3-phenoxypropyl)validamine]

- IC50 [1, 6]: 4.5 µM
SMILES: OCC(N[C@H]1C[C@H](CO)[C@@H](O)[C@H](O)[C@H]1O)c1ccccc1 (stereo partly drawn) [N-[α-(hydroxymethyl)benzyl]validamine]

- IC50 [1, 3]: 1.7 µM
SMILES: OC[C@H]1C[C@H](NCC(O)c2ccccc2)[C@H](O)[C@@H](O)[C@@H]1O (some centres unmarked) [drawing 10]

- IC50 [1, 3]: 32 µM
SMILES: OCC(N[C@H]1C[C@H](CO)[C@@H](O)[C@H](O)[C@H]1O)C(O)c1ccccc1 (some centres unmarked) [drawing 11]

- IC50 [1, 3]: 92 µM
SMILES: OC[C@H]1C[C@H](NCCCc2ccccc2)[C@H](O)[C@@H](O)[C@@H]1O [drawing 14]

- IC50 [2, 4]: 1.9 µM
SMILES: OC[C@H]1C[C@H](NCCCc2ccccc2)[C@H](O)[C@@H](O)[C@@H]1O [drawing 24]

- IC50 [2, 4]: 0.022 µM
SMILES: OC[C@H]1C[C@H](NCC(O)c2ccccc2)[C@H](O)[C@@H](O)[C@@H]1O (some centres unmarked) [drawing 32]

- IC50 [2, 4]: 0.26 µM
SMILES: OCC(N[C@H]1C[C@H](CO)[C@@H](O)[C@H](O)[C@H]1O)C(O)c1ccccc1 (some centres unmarked) [drawing 33]
